In patent publication US20160287602A1, “METHODS FOR PROMOTING MOTOR NEURON SURVIVAL” (PRESIDENT AND FELLOWS OF HARVARD COLLEGE, priority 2013, published 2016):
“Also recorded” adds a separate entry of the source.

How the values were obtained:
[1] = tested on: wild-type (Hb9::GFP) mouse ESC derived MNs; experiment: MN survival after trophic factor withdrawal, mixed culture; assay type: cell-based; conditions: for survival of MNs (number of surviving MNs): trophic factor withdrawal, 3 days, wild-type Hb9::GFP MNs
Excerpt: In the present study, we have screened highly specific small molecule kinase inhibitors to identify those which could promote MN survival. For the screen, we generated MNs from wild-type (Hb9::GFP) and SOD1^G93A (SOD1^G93A/Hb9::GFP) mouse ESCs using published protocols (Di Giorgio et al., 2007). We withdrew trophic factors as a standard method to induce MN death. Cell plating density as well as timing for initiation and duration of trophic factor withdrawal were used exactly as published to achieve ˜80% MN death in 3 days (FIG. 1A) (Yang et al., 2013). […] We continued to work with this compound class as it reproducibly promoted survival of both MNs types and the effect was robust. We further reasoned that since this compound class promoted survival of both MN types, the probability of its working in other contexts such as on human MNs and in the ALS mouse model was maximum. […]
(§1) Trophic factors were removed and ZM447439 was added to the cultures as previously and MN survival was analyzed on day 7, 14 & 21.

[2] = tested on: SOD1^G93A (SOD1^G93A/Hb9::GFP) mouse ESC derived MNs; experiment: as above; assay type: cell-based; conditions: trophic factor withdrawal, 3 days; SOD1^G93A/Hb9::GFP MNs
Excerpt: In the present study, we have screened highly specific small molecule kinase inhibitors to identify those which could promote MN survival. For the screen, we generated MNs from wild-type (Hb9::GFP) and SOD1^G93A (SOD1^G93A/Hb9::GFP) mouse ESCs using published protocols (Di Giorgio et al., 2007). We withdrew trophic factors as a standard method to induce MN death. Cell plating density as well as timing for initiation and duration of trophic factor withdrawal were used exactly as published to achieve ˜80% MN death in 3 days (FIG. 1A) (Yang et al., 2013). […] We continued to work with this compound class as it reproducibly promoted survival of both MNs types and the effect was robust. We further reasoned that since this compound class promoted survival of both MN types, the probability of its working in other contexts such as on human MNs and in the ALS mouse model was maximum.
High expression of Aurora kinases is associated with various types of cancer (Sen et al., 1997; Reichardt et al., 2003; Tchatchou et al., 2007) and there are many AKIs including VX-680 and ZM447439 that are in clinical trials for anti-cancer drug development.
as §1

[3] = tested on: FACS purified Hb9::GFP MNs; experiment: MN survival after trophic factor withdrawal, FACS purified MN culture; assay type: cell-based, mouse; conditions: FACS purified MN cultures, trophic factors withdrawn, FIG. 1C
Excerpt: ESC-derived MN culture achieves ˜30%-50% MN differentiation efficiency and is therefore highly heterogeneous. To examine whether AKIs specifically act in a cell-autonomous or non-cell-autonomous manner, we established a highly enriched MN culture through FACS purification based on Hb9::GFP reporter expression. […] Next, we asked whether AKIs exert their survival promoting effect only cell-autonomously or whether they also function non-cell-autonomously to rescue MN death. To address this question we produced astrocyte conditioned medium (ACM) by incubating primary murine astrocytes with AKIs (VX-680 and ZM447439). The ACM was then dialyzed using a dialyzer with pore size appropriate for eliminating residual AKIs.

[4] = tested on: wild-type (Hb9::GFP) mouse ESC derived MNs; conditions: previous small molecule survival screen (Yang et al., 2013); cited from earlier work
[5] = tested on: SOD1^G93A (SOD1^G93A/Hb9::GFP) mouse ESC derived MNs; conditions: previous small molecule survival screen (Yang et al., 2013); cited from earlier work
[6] = tested on: human iPSC derived MNs (healthy control, SOD1, TDP-43, C90RF72); conditions: human MNs derived from wild-type and ALS-patient-iPSCs (Yang et al., 2013); cited from earlier work
[7] = ALS (Miller et al., 2007); cited from earlier work
[8] = tested on: Hb9::GFP MNs; experiment: Number of synapses per MN (synapsin/PSD-95 co-localization, automated imager); assay type: cell-based, mouse
Excerpt: (§2) To examine whether MNs kept alive by AKIs maintain morphological integrity we carried out a series of analyses on surviving MNs in the absence of trophic factors. […] We also used an automated imager to analyze the number of synapses per MN by counting co-localized regions positive for the presynaptic marker synapsin and the postsynaptic marker PSD-95.

[9] = tested on: SOD1^G93A/Hb9::GFP MNs; experiment: as above; assay type: cell-based, mouse
Excerpt: as §2

[10] = tested on: synaptophysin in Hb9::GFP MN cultures; experiment: Synaptophysin immunoblotting; assay type: cell-based, mouse
[11] = tested on: synaptophysin in SOD1^G93A/Hb9::GFP MN cultures; experiment: Synaptophysin immunoblotting; assay type: cell-based, mouse
[12] = tested on: Prkarlb; experiment: Prkar1b immunostaining in surviving MNs; assay type: cell-based, mouse; conditions: absence of TFs
[13] = tested on: phosphorylated BAD (pBAD); experiment: Phosphorylated BAD immunostaining in surviving MNs; assay type: cell-based, mouse; conditions: absence of TFs
[14] = tested on: MNs; experiment: Lentivirus knockdown of Prkarlb, MN survival; assay type: cell-based, mouse
Excerpt: (§3) Next we sought to investigate the mechanism by which AKIs promote MN survival. To evaluate this comprehensively we performed microarray analysis to compare gene expression between MNs cultured with: 1) Trophic factors (+TF), 2) No trophic factors (−TF), 3) VX-680 in the absence of TFs, and 4) ZM447439 in the absence of TFs. […] Gene expression was compared between +TF and −TF, VX-680 and −TF, and ZM447439 and −TF. With a cut off of more than 3 fold difference, there were 85 genes overlapping in all three comparison in Hb9::GFP MNs and 57 in SOD1^G93A/Hb9::GFP MNs. We found 39 overlapping genes when we compared both types of MNs (FIG. 5B). […] We analyzed the shortlist of 39 genes by using DAVID functional annotation bioinformatics microarray analysis software to find the potential pathways involved in MN survival. […] PKA is known to phosphorylate BAD protein, leading to increased cell survival (Jose M. LIZCANO et al., 2000; Julian Downward et al., Nature cell biology 1999; Komaki S et al., Neurosci Lett 2012). […] We further investigated this pathway by lentivirus knockdown of Prkarlb.

[15] = tested on: Hb9::GFP and SOD1^G93A/Hb9::GFP MNs; experiment: Microarray analysis of gene expression in MNs; assay type: cell-based, mouse; conditions: compound in the absence of TFs versus -TF
Excerpt: as §3

[16] = tested on: HuES-3/Hb9::GFP human ESC derived MNs; experiment: Human ESC derived MN survival after trophic factor withdrawal; assay type: cell-based; conditions: trophic factors withdrawn; AraC pre-treated cultures
Excerpt: We generated MNs from a human ESC line expressing an HB9::GFP transgene [HuES-3/Hb9::GFP (Di Giorgio et al., 2008)]. Human ESC derived MN cultures were pre-treated with AraC to eliminate progenitor cells. We induced MN death by again withdrawing trophic factors. […] We also investigated the toxic effect of SOD1^G93A astrocytes on human ESC derived MN survival. We found significant death of human MNs cultured on mutant astrocytes.

[17] = tested on: human iPSC derived MNs (healthy control, SOD1, TDP-43, C90RF72); experiment: Human iPSC derived MN survival; assay type: cell-based; conditions: all human iPSC derived MN cultures; AraC treated
Excerpt: We produced MNs from human iPSCs lines including a healthy control, two ALS patients expressing confirmed mutations in SOD1 (Boulting et al., 2011), two with mutations in TDP-43 and one in C90RF72. We treated these cultures with AraC to minimize the number of proliferating progenitors. […] We also examined the effect of SOD 1^G93A astrocytes co-culture on iPSC derived MNs. We found no toxic effect on survival in any of the patient iPSC derived MNs, but we did observe decreased MN survival in the control iPSC derived MNs. […] We also looked at the effect of AKIs on morphology and synapse formation. […] In addition, by immunoblot we observed that ZM447439 enhanced synaptic protein, synaptophysin, expression in both the presence and absence of trophic factors.

[18] = ALS drug candidates; cited from earlier work

Compound: COc1cc2ncnc(Nc3ccc(NC(=O)c4ccccc4)cc3)c2cc1OC.Cl [4-4-Ben, N-[4-[(6,7-Dimethoxy-4-quinazolinyl)amino]phenyl] benzamide Hydrochloride]
- survival of MNs (number of surviving MNs) [1]: consistently increased the survival of MNs
- survival of MNs (number of surviving MNs) [2]: consistently increased the survival of MNs
- MN survival [3]: rescued MN survival in a dose dependent fashion

Compound: O=C1Cc2c([nH]c3ccc(Br)cc23)-c2ccccc2N1 [Kenpaullone]
- healthy survival of MNs [4]: impressive ability to prolong the healthy survival
- healthy survival of MNs [5]: impressive ability to prolong the healthy survival
- survival of human MNs [6]: able to improve the survival

Compound: Nc1nc2ccc(OC(F)(F)F)cc2s1 [Riluzole]
- functional improvement [7]: very little functional improvement; also recorded: little functional improvement

Compound: Cc1cc(Nc2cc(N3CCN(C)CC3)nc(Sc3ccc(NC(=O)C4CC4)cc3)n2)[nH]n1 [VX-680, Tozasertib]
- survival effect in dose dependent assay, comparison among AKIs ([1]; mixed MN culture, FIG. 1B): most effective and potent in promoting MN survival
- survival of MNs (number of surviving MNs) [1]: consistently increased the survival of MNs; also recorded: most potent and robust at increasing survival
- survival of MNs (number of surviving MNs) [2]: consistently increased the survival of MNs; also recorded: most potent and robust at increasing survival
- MN survival [3]: rescued MN survival in a dose dependent fashion
- number of synapses per MN ([8]; absence of trophic factors, Hb9::GFP MNs): preserved the number of synapses
- number of synapses per MN ([8]; neurotrophin containing medium): increased the number of synapses per MN
- number of synapses per MN ([9]; absence of trophic factors, SOD1^G93A/Hb9::GFP MNs): preserved the number of synapses
- number of synapses per MN ([9]; neurotrophin containing medium): increased the number of synapses per MN
- expression of synaptic protein synaptophysin [10]: increased expression
- expression of synaptic protein synaptophysin [11]: increased expression
- levels of Prkarlb [12]: increased levels
- levels of phosphorylated BAD (pBAD) [13]: increased levels
- MN survival on knocking down Prkarlb in the presence of the compound [14]: effectively decreased MN survival
- expression of genes related to synapse formation (Syt1, Snap25 and Sv2c, Map2 and Dcx) [15]: upregulated
- human MN survival [16]: rescued human MN death
- MN survival [17]: substantially increase MN survival

Compound: CCCN[C@@H]1CCc2nc(N)sc2C1 [dexpramipexole]
- outcome of phase III clinical trials [18]: failed

Compound: CC(C)CCC[C@@H](C)[C@H]1CC[C@H]2[C@@H]3CCC4=CC(=NO)CC[C@]4(C)[C@H]3CC[C@]12C [olesoxime]
- outcome of phase III clinical trials [18]: failed
